Patent US20190211397A1, “INHIBITORS OF GPR132 FOR USE IN PREVENTING AND/OR TREATING CHEMOTHERAPY-INDUCED NEUROPATHIC PAIN” (Fraunhofer-Gesellschaft zur Foerderung der angewandten …, priority 2016, published 2019)
“Also recorded” adds a separate entry of the source.

What was measured:
TRPV1 = test: Calcium imaging of DRG neurons: TRPV1 sensitization (two capsaicin stimuli, Δratio); assay type: cell-based, mice
Procedure: DRG primary cultures were prepared as described previously (Brenneis et al., 2011 b). Briefly, twenty to thirty murine dorsal roots ganglia (DRGs) were dissected from spinal segments and transferred directly into ice-cold Hanks' balanced salt solution with CaCI2 and MgCI2 (lnvitrogen, Carlsbad, Calif., USA). The DRGs were than incubated with Neurobasal Medium (lnvitrogen, Carlsbad, Calif., USA) containing 500 U/ml collagenase (Sigma, Deisenhofen, Germany) and 2.5 U/ml dispase II (Roche, Mannheim, Germany) for 75 mins at 37° C. After removal of the collagenase/dispase-solution cells were washed three times with medium containing 10% FCS, penicillin/streptomycin/gentamycin (lnvitrogen, Carlsbad, Calif., USA) and incubated in 0.05% trypsin for 10 min at 37° C. After two washing steps, the cells were mechanically dissociated with a 1 ml pipette and plated on Poly-L-lysine (Sigma) coated coverslips. After incubation at 37° C. for 2 h, Neurobasal Medium containing glutamine (2 mm), penicillin (100 U/ml), streptomycin (100 μg/ml), B-27 and gentamicin (50 μg/ml) was added to the cells and incubated overnight. The neurons were used for Calcium imaging the next day.
Calcium-imaging experiments were performed with a Leica calcium-imaging setup, consisting of a Leica DMI 4000 b inverted microscope equipped with a DFC360 FX (CCD) camera, Fura-2 filters, and an N-Plan 10×/0.25 Ph1 objective (all from Leica), was used. Images were taken every 2 s and were processed with the LAS AF-software (Leica). For each experiment, an area with large cell numbers 24 h after preparation (see DRG primary cultures) was chosen and 40-110 cells were monitored simultaneously. Cells were loaded with 5 μM fura-2-AM-ester (Biotium), incubated for 45-60 min at 37° C. and washed with ringer solution (145 mM NaCI, 1.25 mM CaCl2, 1 mM MgCl2, 5 mM KCI, 10 mM D-glucose, and 10 mM HEPES, adjusted to pH 7.3). Baseline measurements were performed with ringer solution at a flow rate of 1-2 ml/min at room temperature. For the activation of TRPV1 we used a solution of 200 nM capsaicin (Sigma), for TRPA1 activation 50 μM allyl isothiocyanate (AITC, Fluka Analytic) and for TRPM8 100 μM L-menthol (Sigma) dissolved in ringer solution. For TRP-channel sensitization, cells were incubated for 2 mins with different concentrations (50 nM-1000 nM) of (±) 9-HODE (Cayman) or (±) 13-HODE (Cayman) before the second stimulus took place. For control stimulations, the corresponding volume of DMSO (Sigma) was mixed in ringer solution and applied with the same flow rate. 10 μM of the PKA inhibitor H89 (Tocris) or 1 μM of the PKC inhibitor GF1 09203X (Tocris) was co-incubated with fura-2 for 45 mins. As positive control for PKA activation 40 iJM 8-bromo-cAMP (Cayman) and for PKC activation 500 nM bradykinin (Cayman) was used. At the end of each measurement, 50 mM KCl was applied to identify neurons.

PKC = PKC inhibitor on TRPV1 sensitization in DRG neurons (calcium imaging); assay type: cell-based, mice; settings: GF109203X 1 μM 45 mins, 9-HODE 200 nM
Procedure: (§1) DRG primary cultures were prepared as described previously (Brenneis et al., 2011 b). Briefly, twenty to thirty murine dorsal roots ganglia (DRGs) were dissected from spinal segments and transferred directly into ice-cold Hanks' balanced salt solution with CaCI2 and MgCI2 (lnvitrogen, Carlsbad, Calif., USA). The DRGs were than incubated with Neurobasal Medium (lnvitrogen, Carlsbad, Calif., USA) containing 500 U/ml collagenase (Sigma, Deisenhofen, Germany) and 2.5 U/ml dispase II (Roche, Mannheim, Germany) for 75 mins at 37° C. […]
(§2) Calcium-imaging experiments were performed with a Leica calcium-imaging setup, consisting of a Leica DMI 4000 b inverted microscope equipped with a DFC360 FX (CCD) camera, Fura-2 filters, and an N-Plan 10×/0.25 Ph1 objective (all from Leica), was used. […] For each experiment, an area with large cell numbers 24 h after preparation (see DRG primary cultures) was chosen and 40-110 cells were monitored simultaneously. […]
(§3) TRPV1 sensitization can be mediated by PKA or PKC (Schnizler et al., 2008; Bhave et al., 2003). To investigate the signaling pathway between G2A and TRPV1 in DRG neurons, we determined which protein kinases are involved in sensitization of TRPV1. […]

PKA = PKA inhibitor on TRPV1 sensitization in DRG neurons (calcium imaging); assay type: cell-based, mice; settings: H89 10 μM 45 mins
Procedure: as §1, §2, §3

C57BL/6N mice = test: Mechanical pain thresholds of mice after oxaliplatin (dynamic plantar aesthesiometer); assay type: in vivo; settings: oxaliplatin 3 mg/kg i.p.
Source text: In all behavioral tests the experimenter was unaware of the treatment and the genotype of the mice. For all behavioral experiments we used only 6-12 weeks old C57BU6N mice purchased from commercial breeding companies (Charles River, Sulzfeld, Germany, Janvier, Le Geneset-Saint-lsle, FR). G2A and TRPV1 knockout strains were from Jackson laboratories. All experiments followed the ethics guidelines for investigations in conscious animals and the procedures were approved by the local Ethics Committee. […]
To determine the mechanical thresholds of mice, a Dynamic Plantar Aesthesiometer (Ugo Basile, Comerio, Italy) was used. […] Therefore, a steel rod pushed against the plantar side of the hind paw with linear ascending force (0-5 g over 10 s, in 0.5 g/s intervals) until a fast withdraw of the paw was observed The time between the first contact of the steel rod and the paw withdraw was measured in seconds (paw withdraw latency) and a cut-off time of 20 s was set.
To investigate whether or not alterations in concentrations of oxidized lipids occur during oxaliplatin-induced neuropathic pain, 3 mg/kg oxaliplatin (Nassini et al., 2011) was injected i.p. in C57BL/6N mice and the paw withdrawal latency over 10 days was monitored using a dynamic plantar aesthesiometer. […]

DRGs = test: Real-time RT-PCR of DRGs of oxaliplatin treated mice; assay type: in vivo; settings: lumbal DRGs, day 10 after oxaliplatin treatment
Procedure: Lumbar DRGs (L2-L6) were dissected, quick-frozen in liquid nitrogen and stored at −80° C. Total RNA of the DRGs was isolated under RNase-free conditions using a mirVana miRNA Isolation Kit (Ambion) according to the manufacturer's instructions and quantified with a NanoDrop ND-1000 spectrophotometer (NanoDrop Technologies). The cDNA was synthesized from 200 ng RNA using a First Strand cDNA Synthesis Kit (Thermo Scientific) according to the manufacturer's instructions. Real-time RT-PCR was performed using an ABI Prism 7500 Sequence Detection System (Applied Biosystems) using Maxima SYBR Green qPCR Master Mix ROX as well as suitable primers for CYP2C37 (Luo et al., 1998), CYP2C38 (Zhang et al., 2003), CYP2C39 (Luo et al., 1998), CYP2J6 (Choudhary et al., 2003) and CYP3A11 (Chavan et al., 2015).
For analysis of GAPDH (Mm99999915_g1), G2A (Mm02620285_s1), 5-LOX (Mm01182747 m1), 12-LOX (Mm00545833_m1), 15-LOX (Mm00507789_m1) and COX-2 (Mm03294838_g1) assay primer from ThermoFisher Scientific were used. Reactions (total volume 10 μl) were performed in triplicate by incubating at 95° C. for 10 min, followed by 40 cycles of 15 s at 95° C. and 1 min at 60° C. […] Relative expression of target gene levels was determined using the ΔΔCt method, with Ct indicating the cycle number at which the signal of the PCR product crosses a defined threshold set within the exponential phase of the PCR. […]

patients = settings: cited from earlier work

SMILES: CCCCCC(O)/C=C/C=C\CCCCCCCC(=O)O (stereo not drawn) [13-HODE]
- sensitization of TRPV1 (Δratio of first and second capsaicin stimulus) (TRPV1; DRG neurons, lipid incubated 2 minutes before second capsaicin stimulus, 0 to 1000 nM): no strong sensitizing effect
- calcium flux of second vs first capsaicin stimulus (Δratio) (TRPV1; wildtype DRG neurons, lipid 200 nM 120 s, capsaicin 200 nM 30 s): does not increase the Δratio

SMILES: CN(C)CCCn1cc(C2=C(c3c[nH]c4ccccc34)C(=O)NC2=O)c2ccccc21 [GF109203X]
- effect on 9-HODE-induced TRPV1 sensitization (PKC): supresses the 9-HODE-dependent sensitization of TRPV1; also recorded: prevented TRPV1 sensitization

SMILES: O=S(=O)(NCCNC/C=C/c1ccc(Br)cc1)c1cccc2cnccc12 [H89]
- effect on PKA-dependent TRPV1 sensitization caused by 8-bromo-cAMP (PKA; 8-bromo-cAMP 40 μM): inhibited
- effect on 9-HODE-induced TRPV1 sensitization (PKA; 9-HODE 200 nM): not influenced; also recorded: failed to supress

SMILES: O=C1[O][Pt]2([NH][C@@H]3CCCC[C@H]3[NH]2)[O]C1=O [oxaliplatin]
- start of reduced mechanical paw withdrawal latencies (C57BL/6N mice): 4 days
- mechanical paw withdrawal latencies (C57BL/6N mice; C57BL/6N mice, monitored over 10 days): significantly reduced mechanical paw withdrawal latencies
- mRNA expression of CYP2J6, 5-LOX, 12-LOX, 15-LOX and COX-2 (DRGs): No difference in mRNA expression
- patients in whom CIPN is induced (patients): up to 80%
